{
  "source": "patent US12233070B2",
  "about": "“Methods for treating benzodiazepine misuse/use disorder” (University of M[…] Center, priority 2020, dated 2025)",
  "key": {"Sprague-Dawley rats [1]": {"system": "Sprague-Dawley rats", "assay": "Pulmonary ventilation, whole body plethysmography", "format": "in vivo, rat", "settings": "over the doses tested, i.p.; N=8 rats", "protocol": "We first assessed the effects of TPA023B, in comparison with alprazolam, using whole body plethysmography (WBP; DSI systems). For these studies, adult male Sprague-Dawley rats (n=8) were habituated to the chambers for 30 min. The chamber was then filled with 21% oxygen, sealed, and pressure fluctuation measured for 1 min. Next, the chamber was opened and the rats were injected with alprazolam or TPA023B, i.p., and placed into the sealed chamber for a 15 min pretreatment time. The chamber was again filled with 21% oxygen, and for 1 min, fluctuating pressure amounts were recorded to obtain tidal volume (lung capacity), breaths/minute, and minute volume (lung capacity per unit time)."}, "Sprague-Dawley rats [2]": {"system": "Sprague-Dawley rats", "assay": "Precipitated withdrawal/acute dependence: responding 60 min after diazepam bolus", "format": "in vivo, rat", "settings": "all doses tested, vs ligand alone; FIGS. 11A and 11B", "protocol": "Acute dependence can occur after single exposures to the benzodiazepine chlordiazepoxide, but not to an α2/3GABAA selective ligand (Fischer et al. 2013, Psychopharmacology 227: 347-54). Here, the extent to which TPA023B can precipitate withdrawal in rats following a single, large bolus dose of diazepam was studied. […] Once rates of responding were stable, doses of diazepam, the non-selective benzodiazepine antagonist flumazenil, and TPA023B were administered prior to the session."}, "[3]": {"system": "CNS benzodiazepine binding sites", "settings": "rodents and primates; cited from earlier work"}, "rhesus monkeys [4]": {"system": "rhesus monkeys", "assay": "Observation/sedation, focal animal behavioral scoring", "format": "in vivo, rhesus monkey", "settings": "i.v.", "protocol": "For the data shown here, the behavior of each monkey (n=4 total) was scored using a focal animal approach as described previously (Duke et al. 2018, J Pharmacol Exp Ther 366: 145-57). Briefly, a trained observer blind to the drug treatments observed a specific monkey for 5 min and recorded each instance that a particular behavior occurred during 15-s intervals. Scores for each behavior were calculated as the number of 15-s bins in which the behavior occurred (e.g., a maximum score would be 20). For sedation measures, structured exposure to stimuli were included in the observation sessions (Duke et al., 2018). […] Specifically, the observer presented three stimuli: 1) walked at a normal pace towards the cage, 2) spoke the animal's name, and 3) moved the lock used to secure the door of the cage. […] If the monkey attended more slowly (i.e., >3 s following stimuli), the observer scored “moderate sedation”.\nThe assessment of sedation was initiated during the 5-min sampling period if the animal presented, at any time during that period, with its eyes closed for longer than 3 s. The result of this assessment was recorded for each remaining 15-sec interval of the 60-sec epoch unless eyes opened. Afterwards, eyes closing again initiated the assessment. If eyes remained closed, then the assessment was repeated at the beginning of the next 60-sec epoch 15-sec interval. Therefore, the maximum score for sedation during a 5-min period was 20 (four possible scores for 4×15-sec intervals per min, 5 min total; i.e., 4 possible scores×5 min=20). The order in which animals were observed and the observer performing the scoring each day was randomized. Four observers participated in the scoring throughout the duration of the study; each observer underwent a minimum of 20 hours of training and met an inter-observer reliability criterion of ≥90% agreement with all other observers.\nThe five-min sampling periods were repeated at multiple times following i.v. injection of TPA023B or vehicle (minutes post injection): 5, 10, 20, 40, 80, 160, 320. Scores were cumulated across the time periods, resulting in a maximum possible cumulative score of 140. TPA023B was compared with alprazolam, and the results have been published by Duke et al. (2018)."}, "[5]": {"parameters": "key to Pharmacokinetics: “poor” - low bioavailability and/or short half-life; “good” - potent with long half-life", "settings": "in vivo; cited from earlier work"}, "rhesus monkeys [6]": {"system": "rhesus monkeys", "assay": "Food self-administration (PR) after TPA023B pretreatment", "format": "in vivo, rhesus monkey", "settings": "up to 0.3 mg/kg TPA023B i.v. pretreatment; 2 pellets/delivery", "text": "To evaluate the extent to which suppression of lever-pressing behavior by TPA023B represents non-specific inhibition, we also tested food self-administration under the PR schedule. For these experiments, test sessions were scheduled similar to those with midazolam dose/vehicle, except that 2 food pellets (1-g BioServ flavored food pellets) were available as reinforcers rather than midazolam dose. All other aspects of the test was the same, including response requirements and TPA023B pretreatment conditions."}, "rhesus monkeys [7]": {"system": "rhesus monkeys", "assay": "Conflict model of anxiolysis (mult FR, FR+PUN)", "format": "in vivo, rhesus monkey", "settings": "i.v.; for Non-Suppressed, Mean responses/s (SEM) / Suppressed, Mean responses/s (SEM): N = 4 monkeys", "text": "The conflict procedure methodology includes a two-component multiple fixed-ratio, fixed-ratio plus punishment schedule (mult FR, FR+PUN). An important feature of this model is that it is highly predictive of clinically active doses in human subjects (Rowlett et al. 2006, Psychopharmacology 184: 201-11). One component of this schedule was associated with a distinctive visual stimulus (e.g., red light) and the other component was associated with a different stimulus (e.g., green light). In each component, completion of 10 responses (FR 10) produced a food pellet followed by a brief (10 sec) timeout period. The component ended following delivery of 5 food pellets or 5 min, whichever occurred first. A 10-min timeout period occurred before each of four cycles with two components (1 red, 1 green) per cycle. When performance in both components of the multiple schedule was stable, responding in one component was suppressed by superimposing a FR schedule of response-produced electric shock. Under the superimposed schedule, every nth response (n=15-25, adjusted for each monkey depending on individual performance) produced shock. Once responding was stable (at least three sessions in which suppressed responding was less than 50% of non-suppressed responding, with no upward or downward trend in response rates in either component), investigational compounds were administered i.v. during the extended timeout periods using a cumulative dosing technique. This technique allowed determination of a four-point dose-response function in a single session.\nTable 2 summarizes data for TPA023B in the conflict procedure (n=4 monkeys, 2 females and 2 males), with alprazolam as a positive control. Average responses when vehicle was administered was 2.2 in the non-suppressed component, decreased by ˜98% by shock presentation in the suppressed component (mean=0.05 responses). For non-suppressed responding, TPA023B had no effects on mean rates of responding or percent of control over a 100-fold dose range (0.01 to 1.0 mg/kg, i.v.). […] This effect was similar to that observed with 0.03 mg/kg, i.v., of alprazolam. A striking characteristic of TPA023B in this procedure is the lack of attenuation of rates of responding at higher doses."}, "[8]": {"target": "α3 subunit-containing GABAA receptors (Homo sapiens, UniProt P18507+P34903)", "sequence (P34903 29-492)": "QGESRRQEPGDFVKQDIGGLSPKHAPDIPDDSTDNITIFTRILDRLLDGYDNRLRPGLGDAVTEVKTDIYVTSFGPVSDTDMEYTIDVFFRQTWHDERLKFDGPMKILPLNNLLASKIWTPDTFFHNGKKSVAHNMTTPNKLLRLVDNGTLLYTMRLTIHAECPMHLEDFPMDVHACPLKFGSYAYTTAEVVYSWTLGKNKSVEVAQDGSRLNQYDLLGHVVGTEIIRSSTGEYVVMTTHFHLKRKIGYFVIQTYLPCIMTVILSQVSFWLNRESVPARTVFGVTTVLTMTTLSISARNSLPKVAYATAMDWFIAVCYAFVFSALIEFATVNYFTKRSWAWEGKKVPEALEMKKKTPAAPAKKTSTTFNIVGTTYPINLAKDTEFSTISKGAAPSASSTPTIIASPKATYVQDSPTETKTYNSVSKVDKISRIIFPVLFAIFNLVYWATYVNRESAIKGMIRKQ", "sequence (P18507 40-475)": "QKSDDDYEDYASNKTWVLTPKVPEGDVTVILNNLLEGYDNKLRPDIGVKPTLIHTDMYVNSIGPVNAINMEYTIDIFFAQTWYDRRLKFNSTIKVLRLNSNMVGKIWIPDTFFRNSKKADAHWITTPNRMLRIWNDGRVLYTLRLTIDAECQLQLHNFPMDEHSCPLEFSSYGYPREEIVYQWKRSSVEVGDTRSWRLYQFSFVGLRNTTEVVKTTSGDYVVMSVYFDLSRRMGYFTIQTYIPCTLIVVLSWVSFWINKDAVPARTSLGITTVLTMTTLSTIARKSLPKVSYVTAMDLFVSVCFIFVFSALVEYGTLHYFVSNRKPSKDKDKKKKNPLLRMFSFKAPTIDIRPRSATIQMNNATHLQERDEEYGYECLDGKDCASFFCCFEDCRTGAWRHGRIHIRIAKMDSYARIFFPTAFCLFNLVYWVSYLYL", "sequence (P28472 26-473 partner)": "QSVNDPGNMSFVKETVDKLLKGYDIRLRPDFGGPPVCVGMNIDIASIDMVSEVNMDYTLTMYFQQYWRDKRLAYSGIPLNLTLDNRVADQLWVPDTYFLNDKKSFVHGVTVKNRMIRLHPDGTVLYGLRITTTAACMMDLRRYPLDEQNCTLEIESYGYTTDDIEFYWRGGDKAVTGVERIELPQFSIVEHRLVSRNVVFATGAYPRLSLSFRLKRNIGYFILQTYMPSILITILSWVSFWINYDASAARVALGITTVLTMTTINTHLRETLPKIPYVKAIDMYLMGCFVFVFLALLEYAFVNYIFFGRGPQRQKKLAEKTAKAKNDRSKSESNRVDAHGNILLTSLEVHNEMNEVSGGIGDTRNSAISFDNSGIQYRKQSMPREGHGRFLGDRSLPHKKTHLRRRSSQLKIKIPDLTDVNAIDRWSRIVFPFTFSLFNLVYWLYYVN", "parameters": "key: act as partial positive modulators for particular subtype combinations; none: zero efficacy (i.e., antagonism) at other subtypes", "settings": "cited from earlier work"}, "[9]": {"settings": "at least one dose significantly different from vehicle, out of 22 behaviors, N = 4 monkeys"}},
  "note": "“Also recorded” adds a separate entry of the source. Marks after values point to notes of the source that are not given here.",
  "data": [
    {"smiles": "CC(C)(O)c1cnn2c(-c3ccc(F)c(-c4c(F)cccc4C#N)c3)cnc2n1", "note": "[TPA023B]", "values": [
      {"measurement": "any ventilatory parameter (breathing frequency, tidal volume, minute volume)", "setting": "Sprague-Dawley rats [1]", "value": "did not alter; also recorded: no effects"},
      {"measurement": "rates of responding 60 min after 3.0 mg/kg diazepam (precipitated withdrawal)", "setting": "Sprague-Dawley rats [2]", "value": "did not alter rates of responding"},
      {"measurement": "occupancy of CNS benzodiazepine binding sites at minimally-effective doses in anxiolysis assays", "setting": "[3]", "value": "61-88%"},
      {"measurement": "highest tolerated dose relative to lowest dose inducing rest/sleep posture", "setting": "rhesus monkeys [4]; 1.0 mg/kg", "value": 30, "unit": "fold"},
      {"measurement": "Significant behavioral effects: Decrease", "setting": "rhesus monkeys [4]; [9]", "value": "Tactile/Oral Exploration"},
      {"measurement": "Significant behavioral effects: Increase", "setting": "rhesus monkeys [4]; [9]", "value": "Rest/Sleep Posture"},
      {"measurement": "tolerability", "setting": "rhesus monkeys [4]; up to doses of 1.0 mg/kg", "value": "well-tolerated"},
      {"measurement": "Pharmacokinetics", "setting": "[5]", "value": "good"},
      {"measurement": "effect on food-maintained responding", "setting": "rhesus monkeys [6]", "value": "did not alter"},
      {"measurement": "Non-Suppressed, Mean responses/s (SEM)", "setting": "rhesus monkeys [7]; 0.01 mg/kg", "value": "2.0 (0.08) responses/s"},
      {"measurement": "Suppressed, Mean responses/s (SEM)", "setting": "rhesus monkeys [7]; 0.01 mg/kg", "value": "0.03 (0.02) responses/s"},
      {"measurement": "Non-Suppressed, Mean responses/s (SEM)", "setting": "rhesus monkeys [7]; 0.1 mg/kg", "value": "2.0 (0.15) responses/s"},
      {"measurement": "Suppressed, Mean responses/s (SEM)", "setting": "rhesus monkeys [7]; 0.1 mg/kg", "value": "2.46 (0.40)* responses/s"},
      {"measurement": "Non-Suppressed, Mean responses/s (SEM)", "setting": "rhesus monkeys [7]; 1.0 mg/kg", "value": "2.1 (0.97) responses/s"},
      {"measurement": "Suppressed, Mean responses/s (SEM)", "setting": "rhesus monkeys [7]; 1.0 mg/kg", "value": "2.00 (0.75)* responses/s"},
      {"measurement": "effect on non-suppressed responding (mean rates, percent of control)", "setting": "rhesus monkeys [7]; 100-fold dose range, 0.01 to 1.0 mg/kg", "value": "no effects"},
      {"measurement": "effect on rates of suppressed responding (anti-conflict effect)", "setting": "rhesus monkeys [7]; reaching non-suppressed levels at 0.1 mg/kg", "value": "significantly enhanced"},
      {"measurement": "Subtype α3", "setting": "[8]", "value": "partial"}
    ]}
  ]
}
